The text below walks through data of US7304039B2, “Glucose-based compounds with affinity to P-selectin” (Astellas Pharma Europe B.V., priority 2002, dated 2007).

The structures appear in SMILES notation.

By EC50 is commonly meant the concentration that produces a half-maximal response. A lower EC50 goes with higher potency in that assay.

In the assay the target is T1, human P-selectin (Homo sapiens, UniProt P16109).
T1 sequence (P16109 42-771): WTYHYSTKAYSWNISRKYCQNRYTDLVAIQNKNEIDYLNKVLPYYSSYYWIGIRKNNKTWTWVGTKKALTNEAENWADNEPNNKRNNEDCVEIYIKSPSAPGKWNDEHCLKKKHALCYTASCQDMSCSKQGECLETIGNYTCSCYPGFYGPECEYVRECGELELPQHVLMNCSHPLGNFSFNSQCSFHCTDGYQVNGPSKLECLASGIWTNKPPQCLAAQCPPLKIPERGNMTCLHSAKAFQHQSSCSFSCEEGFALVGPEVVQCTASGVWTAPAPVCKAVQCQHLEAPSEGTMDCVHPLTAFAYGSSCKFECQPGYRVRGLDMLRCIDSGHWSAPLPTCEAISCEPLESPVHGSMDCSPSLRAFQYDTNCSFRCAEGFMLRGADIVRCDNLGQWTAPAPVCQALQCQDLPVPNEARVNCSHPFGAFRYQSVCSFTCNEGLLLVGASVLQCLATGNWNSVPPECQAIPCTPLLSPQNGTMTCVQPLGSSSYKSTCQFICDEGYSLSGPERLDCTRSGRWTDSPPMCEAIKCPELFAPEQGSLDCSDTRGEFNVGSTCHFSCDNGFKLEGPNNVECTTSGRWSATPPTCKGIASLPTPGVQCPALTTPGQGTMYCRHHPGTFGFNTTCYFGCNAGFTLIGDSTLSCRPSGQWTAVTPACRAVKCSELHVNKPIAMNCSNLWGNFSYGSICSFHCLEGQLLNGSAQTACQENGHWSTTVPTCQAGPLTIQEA
In words: inhibition assay of SO3-sLea-PAA-biotin binding to immobilized P-selectin. To be noted: inhibition of HSO3-Lea-PAA-biotin (0.33 μg/ml) binding to immobilized human P-selectin/IgG-Fc, 2 hours at 37° C. The protocol:
The activity of compound 3 was evaluated in an inhibition assay of SO3-sLe^a-PAA-biotin binding to immobilized P-selectin as described in the literature (G. Weitz-Schmedt et al., Anal. Biochem. 238, 184-190, 1996) and compared to that of its mannosyl analogue (reference compound 2). A 96 microtiter plate (High binding flat bottom, Costar, Corning, U.S.A.) was coated overnight at 4° C. with 10 μg/ml goat anti-human IgG in coating buffer (50 mM NaHCO3, pH 9.6). Subsequently, wells were washed with assay buffer (20 mM HEPES, 150 mM NaCl, 1 mM CaCl2, pH 7.4) and incubated for 1 hour at 37° C. with blocking buffer (3% BSA in assay buffer). After washing with assay buffer, the wells were incubated for 2 hours at 37° C. with human P-selectin/IgG-Fc (0.3 μg/ml) or CD4/IgG-Fc (as negative control). Subsequently, wells were washed three times with assay buffer and incubated for 2 hours at 37° C. in binding buffer (0.1% BSA, 0.05% Tween 20 in assay buffer) with 0.33 μg/ml HSO3-Le^a-PAA-biotin and the compound. The wells were washed six times with binding buffer and 3,3′,5,5′-tetramethylbenzine (TMB)/H2O2 was added and incubated at room temperature for 15 minutes. The reaction was halted by addition of 2M H2SO4 and the absorbance was measured at 450 nm.
The binding of compounds 6d, 6f, and 6i to P-selectin was evaluated using the same inhibition assay as described in example 2.
As to `O=C(COP(=O)(O)O)C(O)C(O)COC1OC(CO)C(O)C(O)C1O` (centres unmarked) [Reference compound 2, reference compound], the midpoint of the response, the EC50, lay at 8.2 mM. For `O=C(NC1C(OCC(O)C(O)C(=O)COP(=O)(O)O)OC(CO)C(O)C1O)c1ccccc1` (centres unmarked) [Compound 6f] the value was 0.9 mM; for `O=C(COP(=O)(O)O)C(O)C(O)COC1OC(CO)C(O)C(O)C1O` (centres unmarked) [Compound 3], 2 mM; for `O=C(NC1C(OCC(O)C(O)C(=O)COP(=O)(O)O)OC(CO)C(O)C1O)OCC(Cl)(Cl)Cl` (centres unmarked) [Compound 6d], 3.7 mM.

Take `CCCCCCCC(=O)NC1C(OCC(O)C(O)C(=O)COP(=O)(O)O)OC(CO)C(O)C1O` (centres unmarked) [Compound 6c]: the EC50 was 4.5 mM.
